Measurements reported in patent US10036052B2, “Method for producing biogenic substances” (BRANDENBURGISCHE TECHNISCHE UNIVERSITÄT COTTBUS-SENFTENBERG, priority 2013, dated 2018).

System: HepaFH3 (proliferation-competent liver cells)
Conditions: human, 100 μM
Description: HepG2 cells (ATCC HB-8065) are cultivated in the medium DMEM PAA (Pasching, Austria), to which is added 10% FCS Gold, 2 mM L-glutamine, 100 U/mL penicillin, and 0.1 mg/mL streptomycin. Primary human hepatocytes (pHHs) are commercially obtained from, e.g., TebuBio (Le Perray-en-Yvelines, France) or Promocell (Heidelberg, Germany). The cells are seeded onto 50 μg/mL collagen type I (rat tail, BD Biosciences, San Jose, USA) coated cell culture plates and cultivated at 37° C. under 5% CO2 in hepatocyte growth medium (Promocell GmbH, Heidelberg, Germany) or equivalent cell culture media of other manufacturers known to the person skilled in the art. These pHHs can be used for metabolite production immediately or after production of proliferation-competent liver cells. To accomplish this, proliferation genes are transduced into the cells using a lentiviral vector. This technique is described in WO2009/030217A2 (Braspenning et al. (2007)). […] The proliferating hepatocyte clones (cell lines) are characterized with respect to their liver cell markers. […] For definition of sequences to generate primers, the person skilled in the art can use databases such as the NCBI GenBank® (http://www.ncbi.nlm.nih.gov/genbank) or the European Nucleotide Archive (http://www.ebi.ac.uk/ena/). For phase I, the most relevant enzymes are those of the cytochrome P450 (CYP) family. […]

Structure (SMILES): O=C(O)Cc1ccccc1Nc1c(Cl)cccc1Cl [Diclofenac]
- Metabolite 4′-OH-diclofenac formed: 7.13 ± 2.22 pmol/(min*10^6 cells)
